Measured values: US10513523B2, “Imidazopyrazines and pyrazolopyrimidines and their use as AMPA receptor modulators” (Janssen Pharmaceutica NV, priority 2015, dated 2019)

What follows are compounds tested against GluA1o-γ8 (GRIA1o-CACNG8 fusion construct; TARP γ8 dependent AMPA receptor) (Homo sapiens (Human), UniProt P42261+Q8WXS5) (assay: Calcium flux assay (FLIPR), inhibition of glutamate response of GluA1o-γ8 channel). Details: HEK293 cells stably expressing GRIA1o-CACNG8 fusion; 15 μM glutamate; pIC50 = negative log of IC50 in molar; read-out: GluR1-γ8 (pIC50) (converted).
Chain of GluA1o-γ8 (GRIA1o-CACNG8 fusion construct; TARP γ8 dependent AMPA receptor) (P42261 other isoform, or with tags, fused parts or gaps): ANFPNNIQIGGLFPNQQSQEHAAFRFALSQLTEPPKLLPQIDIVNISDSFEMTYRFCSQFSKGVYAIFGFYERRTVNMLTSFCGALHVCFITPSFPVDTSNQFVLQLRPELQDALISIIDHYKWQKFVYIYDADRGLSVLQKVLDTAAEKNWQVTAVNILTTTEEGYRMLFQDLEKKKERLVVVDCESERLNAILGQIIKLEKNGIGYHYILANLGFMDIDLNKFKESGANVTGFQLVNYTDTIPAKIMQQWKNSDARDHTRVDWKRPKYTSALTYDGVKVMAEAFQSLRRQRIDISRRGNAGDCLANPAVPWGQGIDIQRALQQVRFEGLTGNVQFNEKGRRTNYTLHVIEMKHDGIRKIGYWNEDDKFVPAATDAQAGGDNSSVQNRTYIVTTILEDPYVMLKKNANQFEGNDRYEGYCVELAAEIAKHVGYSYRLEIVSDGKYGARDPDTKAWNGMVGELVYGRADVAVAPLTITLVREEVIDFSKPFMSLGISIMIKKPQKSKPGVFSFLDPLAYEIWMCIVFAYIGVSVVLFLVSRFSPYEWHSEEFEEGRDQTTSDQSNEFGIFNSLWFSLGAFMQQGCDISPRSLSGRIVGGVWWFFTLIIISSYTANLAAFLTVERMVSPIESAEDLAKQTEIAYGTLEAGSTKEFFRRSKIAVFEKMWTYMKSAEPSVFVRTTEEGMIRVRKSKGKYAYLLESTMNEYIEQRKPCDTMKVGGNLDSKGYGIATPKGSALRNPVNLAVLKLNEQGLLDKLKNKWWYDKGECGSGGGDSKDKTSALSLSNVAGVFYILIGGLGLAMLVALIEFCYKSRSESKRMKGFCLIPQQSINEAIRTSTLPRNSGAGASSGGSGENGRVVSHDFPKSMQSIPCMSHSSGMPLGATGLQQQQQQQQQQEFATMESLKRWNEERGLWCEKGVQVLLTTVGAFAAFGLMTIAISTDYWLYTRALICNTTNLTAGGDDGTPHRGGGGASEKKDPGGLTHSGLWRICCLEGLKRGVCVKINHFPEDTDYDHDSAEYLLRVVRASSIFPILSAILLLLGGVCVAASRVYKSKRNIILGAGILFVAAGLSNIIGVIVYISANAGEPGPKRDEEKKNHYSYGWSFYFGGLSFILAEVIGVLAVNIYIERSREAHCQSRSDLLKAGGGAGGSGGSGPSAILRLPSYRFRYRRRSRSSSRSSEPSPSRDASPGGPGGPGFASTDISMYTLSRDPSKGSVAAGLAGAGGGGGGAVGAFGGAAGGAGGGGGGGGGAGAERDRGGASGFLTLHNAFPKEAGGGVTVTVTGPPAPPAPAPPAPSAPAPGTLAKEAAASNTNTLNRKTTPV
Format: cell-based
How it was run: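 Potency is the midpoint of a four-parameter logistic fit to control-normalized FLIPR calcium responses elicited by 15 μM glutamate. Stable HEK293 cells carried a fused GluA1o-γ8 construct and were preincubated with compound and calcium dye in pH 7.4 HEPES buffer.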
`CN1CCN(c2nccn3c(-c4ccc5c(c4)CC(=O)N5)c(-c4ccc(F)cc4)nc23)CC1=O` [Example 110, 5-(2-(4-fluorophenyl)-8-(4-methyl-3-oxopiperazin-1-yl)imidazo[1,2-a]pyrazin-3-yl)indolin-2-one] showed an IC50 of 1.26 nM.
`CC(C)(C)c1nn2c(N3CC4(COC4)C3)nccc2c1-c1ccc2c(c1)CC(=O)N2` [Example 199, 5-[2-tert-Butyl-7-(6-oxa-2-azaspiro[3.3]heptan-2-yl)pyrazolo[1,5-c]pyrimidin-3-yl]indolin-2-one] showed an IC50 of 316 nM.
Compound `O=c1[nH]c2ccc(-c3c(Cc4ccccc4)nc4c(N5CCOCC5)nccn34)cc2[nH]1` [Example 22, 5-(2-Benzyl-8-morpholino-imidazo[1,2-a]pyrazin-3-yl)-1,3-dihydrobenzimidazol-2-one] has an IC50 of 1.58 nM.
In the case of `CC(=O)N1CCN(c2ncc(Br)n3c(-c4ccc5c(c4)CC(=O)N5)c(Cc4ccccc4)nc23)CC1` [Example 113, 5-(8-(4-Acetylpiperazin-1-yl)-2-benzyl-5-bromoimidazo[1,2-a]pyrazin-3-yl)indolin-2-one], the IC50 is reported as 0.316 nM.
`CO[C@H]1CCN(c2nccc3c(-c4ccc5c(c4)CC(=O)N5)c(-c4ccccc4)nn23)C1` [Example 197, 5-[7-[(3S)-3-Methoxypyrrolidin-1-yl]-2-phenyl-pyrazolo[1,5-c]pyrimidin-3-yl]indolin-2-one] was tested, and the IC50 was 1.26 nM.
Work on `O=C1Cc2cc(-c3c(-c4ccc(F)cc4)nn4c(N5CC(O)C5)nccc34)ccc2N1` [Example 179, 5-[2-(4-Fluorophenyl)-7-(3-hydroxyazetidin-1-yl)pyrazolo[1,5-c]pyrimidin-3-yl]indolin-2-one] yielded an IC50 of 6.31 nM.
`O=c1[nH]c2ccc(-c3c(-c4ccc(F)cc4)nc4c(N5CCOCC5)nccn34)cc2o1` [Example 116, 6-(2-(4-Fluorophenyl)-8-morpholinoimidazo[1,2-a]pyrazin-3-yl)benzo[d]oxazol-2(3H)-one] was tested, and the IC50 was 3.16 nM.
`O=C1CN(c2nccn3c(-c4ccc5c(c4)CC(=O)N5)c(C(=O)Nc4ccccc4)nc23)CCN1` [Example 143, 3-(2-Oxoindolin-5-yl)-8-(3-oxopiperazin-1-yl)-N-phenyl-imidazo[1,2-a]pyrazine-2-carboxamide] gave an IC50 of 20 nM.
In the case of `CC1(O)CN(c2nccc3c(-c4ccc5c(c4)CC(=O)N5)c(-c4ccc(F)cc4)nn23)C1` [Example 184, 5-[2-(4-Fluorophenyl)-7-(3-hydroxy-3-methyl-azetidin-1-yl)pyrazolo[1,5-c]pyrimidin-3-yl]indolin-2-one], the IC50 is reported as 3.16 nM.
Work on `O=C(c1ccccc1)c1nc2c(N3CCOCC3)nccn2c1-c1ccc2c(c1)CS(=O)(=O)N2` [Example 159, [3-(2,2-Dioxo-1,3-dihydro-2,1-benzothiazol-5-yl)-8-morpholino-imidazo[1,2-a]pyrazin-2-yl]-phenyl-methanone] yielded an IC50 of 7.94 nM.
With `C[S+]([O-])c1nccn2c(-c3ccc4c(c3)CC(=O)N4)c(-c3ccc(F)cc3)nc12` (stereo not drawn) [Example 128, 5-[2-(4-Fluorophenyl)-8-methylsulfinyl-imidazo[1,2-a]pyrazin-3-yl]indolin-2-one] the IC50 was 631 nM.
With `O=C1Cc2cc(-c3c(-c4ccc(F)cc4)nc4c(N5CCS(=O)(=O)CC5)nccn34)ccc2N1` [Example 47, 5-[8-(1,1-Dioxo-1,4-thiazinan-4-yl)-2-(4-fluorophenyl)imidazo[1,2-a]pyrazin-3-yl]indolin-2-one] the IC50 was 0.398 nM.
For `O=C1Cc2cc(-c3c(-c4ccc(F)cc4)nc4c(N5CCC(=NO)CC5)nccn34)ccc2N1` [Example 155, 5-[2-(4-Fluorophenyl)-8-(4-hydroxyimino-1-piperidyl)imidazo[1,2-a]pyrazin-3-yl]indolin-2-one], the IC50 was 79.4 nM.
With `O=C1Cc2cc(-c3c(-c4ccc(F)cc4)nn4cnccc34)ccc2N1` [Example 175, 5-[2-(4-Fluorophenyl)pyrazolo[1,5-c]pyrimidin-3-yl]indolin-2-one] the IC50 was 631 nM.
`CC(C)(C)OC(=O)N1CCN(c2nccn3c(-c4ccc(O)cc4)c(-c4ccc(F)cc4)nc23)CC1` [Example 3, tert-Butyl 4-[2-(4-fluorophenyl)-3-(4-hydroxyphenyl)imidazo[1,2-a]pyrazin-8-yl]piperazine-1-carboxylate] was tested, and the IC50 was 631 nM.
